Reference: ChEMBL document CHEMBL1124230, “Synthesis and anti-HIV activity of different sugar-modified pyrimidine and purine nucleosides” (1988)

Columns and labels:
[1] = tested on: Human immunodeficiency virus 1; test: Dose required to inhibit cytopathic effect of human immunodeficiency virus replication in MT-4 cells.; format: functional; settings: Human immunodeficiency virus 1, MT4; read-out: ED50 (the source's name)
MT4 [2] = test: Cytotoxic dose required to reduce the viability of normal uninfected MT-4 cells.; format: functional; settings: Homo sapiens, read-out: CD50 (the source's name)
MT4 [3] = test: Ratio of CD50 to ED50 rvaluated for inhibition of HIV replication in MT-4 cells; format: functional
[4] = Ratio of CD50 to ED50 evaluated for inhibition of HIV replication in MT-4 cells; format: functional, MT4

Compound | EC50 [1] [µM] | CC50 (MT4 [2]) [µM] | Selectivity index (MT4 [3]) | Selectivity index [4]
Nc1ncnc2c1ncn2[C@@H]1O[C@H](CO)[C@H]2O[C@H]21 | > 500 | > 500 |  | 
Nc1nc(N)c2ncn(C3CC(F)C(CO)O3)c2n1 (stereo not given) | 4.5 | 360 | 80 | 
Cc1cn([C@H]2C[C@H](N=[N+]=[N-])[C@@H](CO)O2)c(=O)nc1N | 1.8 | > 1000 | 555 | 
CC(=O)SC1CC(n2cc(C)c(=O)[nH]c2=O)OC1CO (stereo not given) | 27 | 29 | 1.1 | 
O=c1ccn([C@H]2C[C@H](F)[C@@H](CO)O2)c(=O)[nH]1 | 0.04 | 16 | 400 | 
Nc1ncnc2c1ncn2[C@@H]1O[C@H](CO)[C@@H]2O[C@@H]21 | > 100 | > 100 |  | 
[N-]=[N+]=N[C@H]1C[C@H](n2ccc(N)nc2=O)O[C@@H]1CO | 3.1 | 34.1 | 11 | 
Cc1cn([C@H]2C[C@H](OC(=S)Oc3ccccc3)[C@@H](CO)O2)c(=O)[nH]c1=O | > 250 | > 250 |  | 
CC1=CN(C2CC(N=[N+]=[N-])C(CO)O2)CN=C1NO (stereo not given) | 1.5 | 92 | 61 | 
CNc1nc(=O)n(C2CC(N=[N+]=[N-])C(CO)O2)cc1C (stereo not given) | 17.3 | > 1000 | >58 | 
CNc1ccn(C2CC(N=[N+]=[N-])C(CO)O2)c(=O)n1 (stereo not given) | 605 | > 1000 | >1.6 | 
Nc1nc(O)c2ncn(C3CC(F)C(CO)O3)c2n1 (stereo not given) | 2.4 | 237 |  | 96
Cc1ccc(SC2CC(n3cc(C)c(=O)[nH]c3=O)OC2CO)cc1 (stereo not given) | > 100 | 116 | <1.2 | 
[N-]=[N+]=N[C@H]1C[C@H](n2ccc(=O)[nH]c2=O)O[C@@H]1CO [NAVURIDINE] | 0.36 | 244 | 677 | 
Nc1ncnc2c1ncn2C1OC(CO)CC1Cl (stereo not given) | > 500 | > 500 |  | 
Nc1ncnc2c1ncn2C1OC(CO)CC1Br (stereo not given) | > 500 | > 500 |  | 
Cc1cn([C@H]2C[C@H](SS[C@H]3C[C@H](n4cc(C)c(O)nc4=O)O[C@@H]3CO)[C@@H](CO)O2)c(=O)nc1O | 16 | 34 | 2.1 | 
Cc1cn(C2OC(CO)C(C#N)C2O)c(=O)[nH]c1=O (stereo not given) | > 500 |  |  | 
Nc1nc(O)c2ncn(C3C=CC(CO)O3)c2n1 (stereo not given) | > 5 | 11 |  | >2.2
Nc1ncnc2c1ncn2[C@@H]1O[C@H](CO)C[C@H]1O [CORDYCEPIN] | > 50 | 45 | <0.5 | 
Nc1nc(O)c2ncn([C@H]3C[C@H](O)[C@@H](CO)O3)c2n1 [DEOXYGUANOSINE] | 158 | > 500 |  | 3.1
C#CC1C(CO)OC(n2cc(C)c(=O)[nH]c2=O)C1O (stereo not given) | > 500 | > 500 |  | 
Cc1cn([C@H]2C[C@H](F)[C@@H](CO)O2)c(=O)[nH]c1=O [ALOVUDINE] | 0.001 | 0.197 | 197 | 
Nc1ncnc2c1ncn2[C@@H]1O[C@H](CO)C[C@@H]1O | > 500 | > 500 |  | 
Nc1nc(N)c2ncn([C@H]3C[C@H](O)[C@@H](CO)O3)c2n1 | > 125 | > 625 |  | 
Nc1ncnc2c1ncn2[C@H]1C[C@H](O)[C@@H](CO)O1 [DEOXYADENOSINE] | > 100 | > 100 |  | 
Cc1cn([C@H]2C[C@H](N=[N+]=[N-])[C@@H](CO)O2)c(=O)[nH]c1=O [ZIDOVUDINE] | 0.004 | 20 | 5000 | 
